Reference: US20100323989A1, “PHARMACEUTICAL COMBINATIONS USEFUL FOR TREATING HCV” (Gilead Sciences, Inc., priority 2009, published 2010)
Where “and” joins values, the source holds several entries; their conditions need not be identical. Identical values can stand only once.

Experiments:
[1] = test system: HCV 1b-con replicon cells; assay: Long-term (20 days, 6 passages) treatment of HCV replicon cells, HCV RNA by Real-Time RT PCR; format: cell-based, HCV genotype 1b; settings: from baseline, compounds at 10 times their EC50, mean ± SD
Procedure: HCV genotype 1b replicon cells (Huh-luc) were obtained from Reblikon (Mainz, Germany). The replicon in these cells is designated I389luc-ubi-neo/NS3-3′/ET and encodes a selectable resistance marker (neomycin phosphotransferase) as well as the firefly luciferase reporter gene. Huh-luc cells were maintained in Dulbecco's Modified Eagle's Medium (DMEM; GIBCO, Carlsbad, Calif.) supplemented with 10% fetal bovine serum (FBS; Hyclone, Logan, Utah) and 0.5 mg/mL of G-418 (GIBCO). Cells were passaged twice a week and maintained at subconfluent levels.
Both compounds were used at concentrations 10 times over their respective EC50 values. In brief, replicon cells (10^6 cells) were plated in a T75 flask in 15 mL of supplemented DMEM without G418. […] At each passage, cells were trypsinized, 10^6 cells were frozen in […] of RLT RNA lysis buffer (QIAGEN), and an additional 10^6 cells were seeded into another T75 flask with fresh medium and inhibitors. At the end of the assay, RNA was extracted from frozen replicon cells saved at the time of passage using QIAGEN RNeasy spin kit and was analyzed in a Real-Time RT PCR assay (Applied Biosystems).

[2] = test system: panel of protease inhibitor resistance-associated-mutations (NS3) in 1b PI-luc replicon; settings: all NS3 protease mutants tested
[3] = test system: mutant 1b Con-1 PI-Luc replicons (major HCV NS5B polymerase inhibitor resistance mutations); assay: Transient transfection replicon assay, panel of NS5B polymerase inhibitor resistance mutations; format: cell-based, HCV genotype 1b; settings: against all NS5B mutations tested
[4] = Multiple-dose pharmacokinetic interaction study in healthy subjects (Example 5); format: in vivo, human
Procedure: Serial blood samples for analysis of plasma concentrations of Compound 2 were collected up to 120 hours after the morning dose on Days 7 and 21 to determine systemic drug exposure. Glossary of Abbreviations and Definitions of Terms Used in Example 5 • AUCtau The area under the concentration versus time curve over the dosing interval • AUC0-last Area under the concentration versus time curve from time zero to the last quantifiable concentration • AUCinf Area under the concentration versus time curve extrapolated to infinite time, calculated as AUC0-last+(Clast/λz) • BID twice daily • CI confidence interval • Cmax The maximum observed concentration of drug in plasma • Ctau The observed drug concentration at the end of the dosing interval • CV coefficient of variation

[5] = Compound 1 (40 mg BID) + Compound 2 (75 mg BID) / Compound 2 alone
[6] = coadministration of Compound 1 (40 mg BID) with Compound 2 (75 mg BID) vs Compound 2 alone

SMILES | HCV RNA Change in Log10, Passage 5 [1] [Log10] | HCV RNA Change in Log10, Passage 6 [1] | fold change in EC50 values from wild-type [2] [fold] | fold change in EC50 values from wild-type [3] [fold] | Compound 2 AUCtau, % Geometric Least Square Mean Ratio (90% CI) [4, 5] | Compound 2 Cmax, % Geometric Least Square Mean Ratio (90% CI) [4, 5] | Compound 2 Ctau, % Geometric Least Square Mean Ratio (90% CI) [4, 5] | decrease in AUCtau of Compound 2 [4, 6] [%] | decrease in Cmax of Compound 2 [4, 6] [%] | decrease in Ctau of Compound 2 [4, 6] [%] | AUC ([4]; plasma, human, oral, Compound 2 (75 mg BID) alone, Day 7, read-out: Compound 2 AUCtau, Mean (% CV)) [ng·h/mL]
Fc1ccccc1-c1nc2ccn(Cc3ccc(-c4ccc(C(F)(F)F)cc4C(F)(F)F)nn3)cc-2n1 [Compound 1, 5-({6-[2,4-bis(trifluoromethyl)phenyl]pyridazin-3-yl}methyl)-2-(2-fluorophenyl)-5H-imidazo[4,5-c]pyridine] | −2.1 ± 0.5 | −2.3 Log10 and −2.4 ± 0.2 Log10 | ≤ 1.2 | – | – | – | – | – | – | – | –
COc1ccc2c(O[C@@H]3C[C@H]4C(=O)N[C@]5(P(=O)(O)Cc6c(F)cccc6F)C[C@H]5CCCCCCC[C@H](NC(=O)OC5CCCC5)C(=O)N4C3)cc(-c3csc(NC(C)C)n3)nc2c1Cl [Compound 2] | −2.9 ± 0.2 | −3.1 Log10 and −3.1 ± 0.4 Log10 | – | ≤ 2.1 | 75.9 (62.0, 93.0) % | 80.0 (66.7, 95.6) % | 70.0 (55.9, 87.5) % | 24 | 20 | 30 | 35300
